How the values were obtained:
[1] = biological target: Proto-oncogene tyrosine-protein kinase Src (Gallus gallus, UniProt P00523); test: Ability to prevent phosphorylation of avian c-Src TK
[2] = biological target: Fibroblast growth factor receptor 1 (Homo sapiens, UniProt P11362)
Description: Ability to prevent phosphorylation of human fibroblast growth factor receptor 1

[3] = biological target: Platelet-derived growth factor receptor beta (Mus musculus, UniProt P05622); test: Ability to prevent phosphorylation of isolated mouse PDGF receptor beta
[4] = biological target: Cyclin-dependent kinase 4 (Homo sapiens, UniProt P11802); test: Inhibition of cyclin dependent kinase 4 (CDK4)
Sequence of Cyclin-dependent kinase 4 (P11802 whole entry): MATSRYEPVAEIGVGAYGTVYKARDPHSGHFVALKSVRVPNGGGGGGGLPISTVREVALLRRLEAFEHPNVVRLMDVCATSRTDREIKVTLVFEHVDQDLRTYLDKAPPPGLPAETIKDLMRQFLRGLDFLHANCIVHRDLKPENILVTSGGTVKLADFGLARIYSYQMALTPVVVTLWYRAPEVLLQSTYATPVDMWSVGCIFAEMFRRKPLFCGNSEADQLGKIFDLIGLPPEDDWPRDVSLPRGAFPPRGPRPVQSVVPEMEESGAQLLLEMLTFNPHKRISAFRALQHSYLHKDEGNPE

HCT-8 = test: Inhibition of human colon carcinoma HCT-8 cell proliferation; type: functional, cell-based
NIH3T3 = test: Inhibition of NIH3T3/PDGF Mouse transfected fibroblasts cell line; type: functional, cell-based
HT-29 = test: Inhibition of human colon carcinoma HT-29 cell proliferation; type: functional, cell-based
[5] = biological target: Platelet-derived growth factor receptor (PDGFr) (Rattus norvegicus, UniProt P20786+Q05030); test: Inhibition of PDGF receptor autophosphorylation in rat aortic vascular smooth muscle cells
SW-620 = test: Inhibition of human colon carcinoma SW-620 cell proliferation; type: functional, cell-based
C6 = test: Inhibition of C-6 rat glioma cell proliferation; type: functional, cell-based
Protein kinase C (PKC) = test: Inhibition of protein kinase C; type: protein assay
[6] = Inhibition of MEK1/ERK (MAP kinase kinase) in cascade assay
[7] = Inhibition of MEK1/ERK (MAP Kinase kinase) in cascade assay

Sequence of Platelet-derived growth factor receptor beta (P05622 whole entry): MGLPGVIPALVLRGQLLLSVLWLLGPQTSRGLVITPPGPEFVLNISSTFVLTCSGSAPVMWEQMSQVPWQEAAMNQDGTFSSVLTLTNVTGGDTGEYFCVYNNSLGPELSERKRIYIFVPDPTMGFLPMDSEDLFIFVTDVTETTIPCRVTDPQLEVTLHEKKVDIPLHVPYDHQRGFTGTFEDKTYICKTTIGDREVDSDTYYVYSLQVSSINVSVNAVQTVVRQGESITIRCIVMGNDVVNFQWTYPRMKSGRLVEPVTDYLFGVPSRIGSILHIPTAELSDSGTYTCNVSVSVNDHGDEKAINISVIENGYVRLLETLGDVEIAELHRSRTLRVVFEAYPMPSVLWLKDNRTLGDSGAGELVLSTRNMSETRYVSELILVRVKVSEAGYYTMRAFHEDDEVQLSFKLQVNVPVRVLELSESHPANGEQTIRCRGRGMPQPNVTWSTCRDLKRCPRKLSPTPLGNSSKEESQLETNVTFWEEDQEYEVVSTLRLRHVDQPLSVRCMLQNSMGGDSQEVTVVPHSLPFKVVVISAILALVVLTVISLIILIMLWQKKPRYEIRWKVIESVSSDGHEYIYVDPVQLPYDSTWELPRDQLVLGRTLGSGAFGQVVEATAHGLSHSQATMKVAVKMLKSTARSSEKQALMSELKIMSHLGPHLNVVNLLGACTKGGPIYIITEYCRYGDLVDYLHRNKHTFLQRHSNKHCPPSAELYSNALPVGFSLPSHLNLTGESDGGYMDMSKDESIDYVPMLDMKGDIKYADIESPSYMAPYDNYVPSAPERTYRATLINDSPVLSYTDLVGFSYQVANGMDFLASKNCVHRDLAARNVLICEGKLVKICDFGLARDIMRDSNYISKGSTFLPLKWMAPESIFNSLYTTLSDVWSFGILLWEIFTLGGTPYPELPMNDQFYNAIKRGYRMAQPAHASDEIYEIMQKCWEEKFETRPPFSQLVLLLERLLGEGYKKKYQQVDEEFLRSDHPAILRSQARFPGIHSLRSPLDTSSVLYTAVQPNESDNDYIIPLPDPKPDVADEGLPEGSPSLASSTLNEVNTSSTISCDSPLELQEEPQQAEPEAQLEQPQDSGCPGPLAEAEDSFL
Sequence of Fibroblast growth factor receptor 1 (P11362 whole entry): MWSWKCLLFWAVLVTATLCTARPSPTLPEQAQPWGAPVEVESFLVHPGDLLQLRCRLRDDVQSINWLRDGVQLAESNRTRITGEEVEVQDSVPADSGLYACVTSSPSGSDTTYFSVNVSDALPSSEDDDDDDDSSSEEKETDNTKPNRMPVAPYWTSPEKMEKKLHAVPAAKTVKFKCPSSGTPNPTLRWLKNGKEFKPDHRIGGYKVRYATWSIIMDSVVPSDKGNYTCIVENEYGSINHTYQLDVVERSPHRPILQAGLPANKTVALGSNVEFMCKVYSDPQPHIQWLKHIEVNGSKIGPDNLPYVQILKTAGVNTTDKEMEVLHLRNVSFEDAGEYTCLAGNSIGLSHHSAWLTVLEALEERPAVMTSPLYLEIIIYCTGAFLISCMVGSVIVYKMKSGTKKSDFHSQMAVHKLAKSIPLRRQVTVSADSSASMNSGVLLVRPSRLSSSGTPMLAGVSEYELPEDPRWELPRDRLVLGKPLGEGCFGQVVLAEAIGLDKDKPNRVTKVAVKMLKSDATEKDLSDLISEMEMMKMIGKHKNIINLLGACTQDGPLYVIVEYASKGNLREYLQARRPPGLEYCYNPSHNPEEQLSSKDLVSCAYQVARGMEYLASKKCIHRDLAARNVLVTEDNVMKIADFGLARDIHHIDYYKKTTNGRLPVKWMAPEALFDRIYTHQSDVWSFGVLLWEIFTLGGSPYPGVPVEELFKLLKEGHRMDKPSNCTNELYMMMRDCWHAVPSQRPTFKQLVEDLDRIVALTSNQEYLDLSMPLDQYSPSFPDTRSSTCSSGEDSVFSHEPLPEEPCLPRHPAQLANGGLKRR

| SMILES | IC50 [1] | IC50 [2] | IC50 [3] | other results |
| --- | --- | --- | --- | --- |
| CCN(CC)C(=O)Nc1nc2nc(NCCCN3CCN(C)CC3)ncc2cc1-c1c(Cl)cccc1Cl | > 50000 nM | 5500 nM | > 50000 nM |  |
| CCN(CC)CCCCNc1ncc2cc(-c3c(Cl)cccc3Cl)c(NC(=O)NC3CCCCC3)nc2n1 | 12 nM | 43 nM | 330 nM |  |
| Cc1cc(C)c(C)c(-c2cc3cnc(N)nc3nc2N)c1C | > 50000 nM | > 50000 nM | > 50000 nM |  |
| CN1CCN(CCCNc2ncc3cc(-c4c(Cl)cccc4Cl)c(NC(=O)Nc4ccc(C(F)(F)F)cc4)nc3n2)CC1 | 190 nM |  | 5500 nM |  |
| CN1CCN(CCCNc2ncc3cc(-c4c(Cl)cccc4Cl)c(N)nc3n2)CC1 | 180 nM | 450 nM | 9600 nM |  |
| CC(C)NC(=Nc1nc2nc(NCCCN3CCN(C)CC3)ncc2cc1-c1c(Cl)cccc1Cl)NC(C)C | 850 nM | 2500 nM |  |  |
| COc1cc(OC)cc(-c2cc3cnc(N)nc3nc2NC(=O)NC(C)(C)C)c1 |  | 48 nM |  |  |
| CC(C)(C)NC(=O)Nc1nc2nc(N)ncc2cc1-c1c(Br)cccc1Br | 210 nM |  | 1400 nM |  |
| CN1CCN(CCCNc2ncc3cc(-c4c(Cl)cccc4Cl)c(N=C(N)Nc4ccccc4)nc3n2)CC1 | 860 nM | 2800 nM | 37000 nM |  |
| CCN(CC)CCCNc1ncc2cc(-c3c(Cl)cccc3Cl)c(N)nc2n1 | 750 nM |  |  |  |
| CCCC(=O)Nc1nc2nc(NCCCN3CCN(C)CC3)ncc2cc1-c1c(Cl)cccc1Cl | 2700 nM | 3700 nM | > 50000 nM |  |
| CCNC(=O)Nc1nc2nc(NCCCCN(CC)CC)ncc2cc1-c1c(Cl)cccc1Cl |  |  |  | IC50 [4]: > 40000 nM; IC50 (HCT-8): 4020 nM; IC50 (NIH3T3): 1010 nM; IC50 (HT-29): 1170 nM; IC50 [5]: 240 nM; IC50 (SW-620): 2760 nM; IC50 (C6): 8800 nM; IC50 (Protein kinase C (PKC)): > 50000 nM; IC50 [6]: > 5000 nM |
| CN1CCN(CCCNc2ncc3cc(-c4c(Cl)cccc4Cl)c(NS(=O)(=O)c4ccccc4)nc3n2)CC1 | 22 nM | 68 nM | 6900 nM |  |
| CN1CCN(CCCNc2ncc3cc(-c4c(Cl)cccc4Cl)c(NC(=S)Nc4ccccc4)nc3n2)CC1 | 22 nM | 320 nM | 2200 nM |  |
| CCN(CC)CCCNc1ncc2cc(-c3c(Cl)cccc3Cl)c(NC(=O)CC(C)(C)C)nc2n1 | 19000 nM | 27000 nM | > 50000 nM |  |
| Cc1cc(C)c(C)c(-c2cc3cnc(N)nc3nc2NC(=O)NC(C)(C)C)c1C | > 50000 nM |  | > 50000 nM |  |
| CN(C)CCCN(C)c1ncc2cc(-c3c(Cl)cccc3Cl)c(NC(=O)NC(C)(C)C)nc2n1 | 1100 nM | 2000 nM | 16000 nM |  |

| SMILES | IC50 [1] | IC50 [2] | IC50 [3] | other results |
| --- | --- | --- | --- | --- |
| COc1cc(OC)cc(-c2cc3cnc(N)nc3nc2N)c1 | > 50000 nM |  |  |  |
| CCN(CC)CCCNc1ncc2cc(-c3c(Br)cccc3Br)c(N)nc2n1 | 760 nM | 8300 nM | > 50000 nM |  |
| CCN(CC)CCCNc1ncc2cc(-c3c(Cl)cccc3Cl)c(/N=C\N(C)C)nc2n1 | 4000 nM | 10000 nM | > 50000 nM |  |
| CCN(CC)CCCNc1ncc2cc(-c3c(C)cccc3C)c(N)nc2n1 | 450 nM | 18000 nM | 25000 nM |  |
| CN1CCN(CCCNc2ncc3cc(-c4c(Cl)cccc4Cl)c(NC(=O)NC(C)(C)C)nc3n2)CC1 |  |  |  | IC50 [4]: > 40000 nM; IC50 (HCT-8): > 15200 nM; IC50 (NIH3T3): 1080 nM; IC50 [7]: 7000 nM; IC50 (HT-29): 11100 nM; IC50 (SW-620): > 25000 nM; IC50 (C6): 4000 nM; IC50 (Protein kinase C (PKC)): 22000 nM |
| CC(C)(C)NC(=O)Nc1nc2nc(N)ncc2cc1-c1c(Cl)cccc1Cl | 220 nM |  | 1200 nM |  |
| CCN(CC)CCNc1ncc2cc(-c3c(Cl)cccc3Cl)c(NC(=O)NC(C)(C)C)nc2n1 | 4100 nM | 1800 nM | 9000 nM |  |
| Nc1ncc2cc(-c3c(Br)cccc3Br)c(N)nc2n1 | 1600 nM |  |  |  |
| CCNC(=O)Nc1nc2nc(NCCN(CC)CC)ncc2cc1-c1c(Cl)cccc1Cl | 2600 nM | 1300 nM | 12000 nM |  |
| CN1CCN(CCCNc2ncc3cc(-c4c(Cl)cccc4Cl)c(/N=C(/S)NC(C)(C)C)nc3n2)CC1 | 220 nM | 100 nM |  |  |
| Nc1ncc2cc(-c3c(Cl)cccc3Cl)c(N)nc2n1 | 210 nM |  | 16000 nM |  |
| Cc1cccc(C)c1-c1cc2cnc(N)nc2nc1N | 430 nM | 13000 nM | 29000 nM |  |
| CN(C)CC(C)(C)CNc1ncc2cc(-c3c(Cl)cccc3Cl)c(NC(=O)NC(C)(C)C)nc2n1 | 3500 nM | 210 nM | 3200 nM |  |
| CN1CCN(CCCNc2ncc3cc(-c4c(Cl)cccc4Cl)c(NC(=O)Cc4ccccc4)nc3n2)CC1 | 3300 nM | 6800 nM | > 50000 nM |  |
| CC/N=C(\N)Nc1nc2nc(NCCCN(CC)CC)ncc2cc1-c1c(Cl)cccc1Cl | 1400 nM | 2700 nM | > 50000 nM |  |
| CN1CCN(CCCNc2ncc3cc(-c4c(Cl)cccc4Cl)c(NC(=O)CC(C)(C)C)nc3n2)CC1 | 8400 nM | 8000 nM | > 50000 nM |  |

Now from value to compound, other results behind:

| IC50 [1] | IC50 [2] | IC50 [3] | SMILES | other results |
| --- | --- | --- | --- | --- |
| 61 nM | 140 nM | 2400 nM | CN1CCN(CCCNc2ncc3cc(-c4c(Cl)cccc4Cl)c(NC(N)=O)nc3n2)CC1 |  |
| 98 nM | 340 nM |  | CCN(CC)CCCNc1ncc2cc(-c3c(C)cccc3C)c(NC(=O)NC(C)(C)C)nc2n1 |  |
| 22 nM | 35 nM | 760 nM | C=CCNC(=O)Nc1nc2nc(NCCCN3CCN(C)CC3)ncc2cc1-c1c(Cl)cccc1Cl |  |
| 36 nM | 110 nM | 840 nM | Cc1ccc(NC(=O)Nc2nc3nc(NCCCN4CCN(C)CC4)ncc3cc2-c2c(Cl)cccc2Cl)cc1 |  |
| 120 nM |  |  | CN(C)CCCNc1ncc2cc(-c3c(Cl)cccc3Cl)c(NC(=O)NC(C)(C)C)nc2n1 |  |
| 33 nM |  |  | COc1ccc(NC(=O)Nc2nc3nc(NCCCN4CCN(C)CC4)ncc3cc2-c2c(Cl)cccc2Cl)cc1 |  |
| 73 nM |  |  | CCN(CC)CCCNc1ncc2cc(-c3c(Cl)cccc3Cl)c(NC(=O)NC(C)(C)C)nc2n1 |  |
| 92 nM | 600 nM | 5000 nM | CN1CCN(CCCNc2ncc3cc(-c4c(Cl)cccc4Cl)c(NC(=O)Nc4ccc(Cl)c(Cl)c4)nc3n2)CC1 |  |
| 94 nM | 130 nM | 1300 nM | CCNC(=O)Nc1nc2nc(NCCCN(CC)CC)ncc2cc1-c1c(Cl)cccc1Cl |  |
| 16 nM | 67 nM | 660 nM | COc1ccccc1NC(=O)Nc1nc2nc(NCCCN3CCN(C)CC3)ncc2cc1-c1c(Cl)cccc1Cl |  |
| 120 nM | 420 nM |  | CCCCCCCCNC(=O)Nc1nc2nc(NCCCN3CCN(C)CC3)ncc2cc1-c1c(Cl)cccc1Cl |  |
| 20 nM | 75 nM | 2400 nM | CN(C)CCNC(=O)Nc1nc2nc(NCCCN3CCN(C)CC3)ncc2cc1-c1c(Cl)cccc1Cl |  |
| 16 nM |  | 730 nM | CC1CCCCN1CCCNc1ncc2cc(-c3c(Cl)cccc3Cl)c(NC(=O)NC(C)(C)C)nc2n1 (stereo not given) |  |
| 10 nM |  | 280 nM | CN1CCN(CCCCNc2ncc3cc(-c4c(Cl)cccc4Cl)c(NC(=O)NC(C)(C)C)nc3n2)CC1 |  |
| 100 nM |  |  | CC(C)(C)NC(=O)Nc1nc2nc(NCCCN3CCOCC3)ncc2cc1-c1c(Cl)cccc1Cl |  |
| 130 nM | 300 nM |  | CN1CCN(CCCNc2ncc3cc(-c4c(Cl)cccc4Cl)c(NC(=O)Nc4cccc5ccccc45)nc3n2)CC1 |  |
| 33 nM | 110 nM | 1500 nM | CN1CCN(CCCNc2ncc3cc(-c4c(Cl)cccc4Cl)c(NC(=O)Nc4ccc(Br)cc4)nc3n2)CC1 |  |
| 7.4 nM |  |  | CCN(CC)CCCCNc1ncc2cc(-c3c(Cl)cccc3Cl)c(NC(=O)NC(C)(C)C)nc2n1 | IC50 [4]: > 40000 nM; IC50 (HCT-8): 16300 nM; IC50 [7]: 2800 nM; IC50 (HT-29): 900 nM; IC50 (SW-620): > 25000 nM; IC50 (C6): 5800 nM; IC50 (Protein kinase C (PKC)): 23000 nM |
| 22 nM | 130 nM | 1100 nM | CCN(CC)CCCCNc1ncc2cc(-c3c(Cl)cccc3Cl)c(NC(=S)NCCCN3CCOCC3)nc2n1 |  |
| 78 nM |  |  | CCN(CC)CCCNc1ncc2cc(-c3c(Cl)cccc3Cl)c(NC(=O)NC(C)C)nc2n1 |  |
| 19 nM | 34 nM | 550 nM | CC(C)NC(=O)Nc1nc2nc(NCCCN3CCN(C)CC3)ncc2cc1-c1c(Cl)cccc1Cl |  |
| 150 nM | 67 nM | 4200 nM | CN1CCN(CCCNc2ncc3cc(-c4c(Cl)cccc4Cl)c(NC(=O)NCCNC(=O)OC(C)(C)C)nc3n2)CC1 |  |
| 120 nM | 120 nM | 2800 nM | CN1CCN(CCCNc2ncc3cc(-c4c(Cl)cccc4Cl)c(NC(=O)NC45C[C@H]6C[C@@H](C4)C[C@@H](C5)C6)nc3n2)CC1 |  |
| 97 nM | 190 nM | 1100 nM | CCN(CC)CCCNc1ncc2cc(-c3c(Br)cccc3Br)c(NC(=O)NC(C)(C)C)nc2n1 |  |
| 40 nM | 120 nM | 1800 nM | CN1CCN(CCCNc2ncc3cc(-c4c(Cl)cccc4Cl)c(NC(=O)Nc4ccc(Cl)cc4)nc3n2)CC1 |  |
| 130 nM | 260 nM | 5000 nM | CCNC(=S)Nc1nc2nc(NCCCN(CC)CC)ncc2cc1-c1c(Cl)cccc1Cl |  |
| 29 nM |  | 910 nM | COc1cccc(NC(=O)Nc2nc3nc(NCCCN4CCN(C)CC4)ncc3cc2-c2c(Cl)cccc2Cl)c1 |  |
| 24 nM |  |  | CCNC(=O)Nc1nc2nc(NCCCN3CCN(C)CC3)ncc2cc1-c1c(Cl)cccc1Cl | IC50 (HCT-8): 9300 nM; IC50 (HT-29): 900 nM; IC50 (SW-620): 2500 nM; IC50 (C6): 6700 nM |
